From patent US11964943B2, “3,5-diarylidenyl-n-substituted-piperid-4-one-derived inhibitors of Stat3 pathway activity and uses thereof” (priority 2017, dated 2024)

Key:
Assay type in all cases: cell-based
A-10 smooth muscle cells = test: Microtubule disruption by indirect immunofluorescence; conditions: 30 μM
DU145 cells = test: Colony formation assay with paclitaxel; conditions: 0.4 μM IE-8 + 0.003 μM paclitaxel, 10 days
Method: DU145 cells were seeded at 1000 cells/well in 6-well plates and allowed to adhere overnight. Cells were treated after seeding with IE-8, paclitaxel, and a combination thereof, and incubated without any further manipulation for 10 days until the control (untreated) wells had <200 colonies formed. Colonies were fixed with ice-cold 100% Methanol, washed with PBS, stained with crystal violet (0.5% w/v) for 5 minutes and counted using a colony-counting function of the Fusion 15.12 software.

[1] = test system: A2780-cisplatin resistant spheroids; test: CellTiter-Glo 3D cell viability assay, A2780-cisplatin resistant spheroids; conditions: 96 h exposure, 3D CellTiter-Glo
Method: For cell spheroid formation, HCT116-oxaliplatin resistant cells, A2780-cisplatin resistant cells, and HT1080 cells were seeded in Corning® Spheroid opaque-walled 96 well Microplates (ultra-low attachment; Nuclon™ Sphera™, Thermofisher) at densities of 2000 cells/well in 100 μl of cell solution and allowed to grow for 4 days, before any manipulation.
At the end of drug incubation, both the plates and the CellTitre-Glo® reagent (previously thawn overnight in the fridge) were equilibrated at room temperature for at least 30 min. Subsequently, 100 μl of cell solution were carefully removed from each well, without disrupting the spheroid and equal volume of CellTitre-Glo® reagent was added. Cell lysis was performed by vigorously shaking the plate for 5 min. To stabilize the luminescent signal, the plate was incubated in the dark at RT for another 30 min before luminescence was recorded on a plate reader. The cell viability of treated samples was normalised to the untreated controls.
The cytotoxicity studies in spheroids were conducted using the CellTiter-Glo® 3D Cell viability assay (Promega) following the instructions of the manufacturer.

[2] = test system: HCT116-oxaliplatin resistant cells; test: Colony formation assay with oxaliplatin; conditions: 10 days
Method: HCT116-oxaliplatin res cells were seeded at 2000 cells/well in 6-well plates and allowed to adhere overnight. The next day, oxaliplatin and IE-8 were added simultaneously. First, the specific amount of cells solution was removed from each well and afterwards the same volume of the appropriate drug dilution was added to achieve the right concentration. IE-8 was diluted in DMA. Cells were also treated with Oxaliplatin and IE-8 alone. The plates were left the incubator and the cells were allowed to grow colonies for 10 days. After 10 days the entire cell solution was removed from each well, which was subsequently washed with 500 μl of PBS. 1 ml of cold 100% methanol was added and the plates were incubated for 30 minutes at 4 C. After a second wash, the cells were stained with 1 ml of […] staining dye for 2-3 minutes, rinsed with water, allowed to dry overnight and the colonies were quantified using a gel imaging system (Fusion Fx7) and its in-built colony counter software.

[3] = test system: survivin, Bcl-2, Bcl-xL, MMP-9, cleaved PARP, cleaved caspase-3; test: Immunoblotting of Stat3 downstream targets and apoptosis markers
Method: (§1) Whole cell lysates were prepared by incubation of harvested, trypsinised cells with CelLytic™ lysis buffer (Sigma-Aldrich) supplemented with 1× protease and 1× phosphatase inhibitors (Roche). Protein quantification was carried out using a protein assay kit (Bio-Rad). 40 μg of the lysates were denatured by heating for 5 min at 95° C. in sample buffer containing 100 mM Tris-Cl (pH 6.8), 4% SDS, 10% 2-mercaptoethanol, 20% glycerol, and 0.02% bromophenol blue. Precision Plus Protein Dual colour standards (Bio-Rad) were used as a molecular weight reference. For the detection of STAT3, pSTAT3, α/β tubulin, cleaved PARP, Bcl-2, Bcl-xL, FANCD2, BRCA1, EME1 and MUS81, proteins were separated on a NuPAGE 7% Tris-acetate gel (Life Technologies) and subsequently transferred to polyvinylidene difluoride membranes (Immobilon®-P transfer membrane; Millipore). […] Membranes were blocked for 1 h at ambient temperature in a blocking buffer containing 5% w/v Bovine Serum Albumin (BSA; Sigma-Aldrich) in 1×TBS, 0.1% Tween-20. All proteins were identified by incubation in a 1:1000 dilution of the respective polyclonal antibodies (Cell signaling) in blocking buffer overnight at 4° C. and subsequent incubation for 1 h with an anti-rabbit or anti-mouse secondary antibody (Cell signalling) at a dilution of 1:1000. The α/β tubulin (1:2000; Cell Signaling) and the anti-phospho-histone H2AX Antibody (1:500; Millipore) were used in the denoted dilutions. Antibody binding was visualized by enhanced chemiluminescence (Amersham) on autoradiography film (Kodak-X-Omat). Alternatively Images were captured by the GelDoc-It Imaging System Fusion Fx7 (Vilber Lourmat, Germany).
as §1, with “Immunoblotting. Whole” for “Whole”, “CelLytic™ M” for “CelLytic™”, “pSTAT3, a/0” for “pSTAT3, α/β”, “in 1×TBS” for “in 1×TBS,”, “(Cell signalling)” for “(Cell signaling)”

[4] = A2780-cisplatin resistant cells

With “3,5-Di(3,4,5-trimethoxybenzylidene)-1-phenylpiperidin-4-one [IE-8]” the effect on microtubules (A-10 smooth muscle cells) was “did not show any effect on the microtubules”.
In the case of `COc1cc(/C=C2\CN(c3ccccc3)C/C(=C\c3cc(OC)c(OC)c(OC)c3)C2=O)cc(OC)c1OC` [IE-8, 3,5-Di(3,4,5-trimethoxybenzylidene)-1-phenylpiperidin-4-one], the colony formation (DU145 cells) is reported as “no colonies were formed”, the IC50 [1] is reported as 3.01 ± 0.41 µM and the number of colonies ([2]; 0.1 μM IE-8 + 1 μM oxaliplatin) is reported as “about 60”. The number of colonies ([2]; 0.1 μM IE-8 + 2 μM oxaliplatin) was “Less than 25”, the “induction of apoptosis (cleaved PARP, cleaved caspase 3, Annexin-V/PI)” value [3, 4] was “induced apoptosis” and the “inhibition of downstream Stat3 targets Bcl-xL and survivin” value [3, 4] was “capable of inhibiting”. For the same molecule, the “downregulation of MMP-9” value ([3]; A2780-cisplatin resistant cells, IL-6 stimulated) was “downregulates the matrix metalloproteinase MMP-9”, the “induction of apoptosis (cleaved PARP)” value ([3]; DU145 and A549 cells, 18 h) was “induced cell death via apoptosis” and the “downregulation of survivin and Bcl-2” value ([3]; DU145 cells, 18 h) was “downregulated the transcription of key Stat3 target genes”.
